Measured values: patent US20250034107A1, “SUBSTITUTED 2-(2-(2,6-DIOXOPIPERIDIN-3-YL)-1- OXOISOINDOLIN-5-YL) ACETAMIDE ANALOGS AS MODULATORS OF GSPT1 AND/OR IKZF1 PROTEIN” (St. Jude Children's Research Hospital, Inc., priority 2021, published 2025)

How the values were obtained:
[1] = molecular target: T1, hGSPT1 (Homo sapiens, UniProt P15170+Q96SW2); assay: hGSPT1 HiBiT assay (level of GSPT1 HiBiT tag protein, Nano-Glo HiBiT Lytic Detection); assay type: cell-based; conditions: HEK293 hGSPT1 HiBiT tag cells, 4 hrs incubation
T1 construct: host or cells: HEK293
Protocol: HEK293 hGSPT1 HiBiT tag cells were seeded in white 384-well assay plates at density of 800 cells per well in triplicates. After overnight incubation, cells were treated with compounds in dose-response format using a Pintool on a Biomek FXP Laboratory Automation Workstation (Beckman Coulter). After 4 hrs incubation, the level of GSPT1 HiBiT tag protein was evaluated using Nano-Glo® HiBiT Lytic Detection System (Promega) according to the manufacturer's instruction. Luminescence signal was measured using an Envision plate reader (Perkin-Elmer).

[2] = system: MHHCALL4 cells; assay: Cell proliferation assay (Cell Titer-Glo), MHH-CALL-4 cells; assay type: cell-based, human; conditions: 72 h incubation; for EC50: Homo sapiens
Protocol: (§1) MV-4-11 cell line was purchased from the American Type Culture Collection (ATCC, Manassas, VA) and maintained in Iscove's Modified Dulbecco's medium (IMDM; (ATCC) supplemented with 10% FBS. MHHCALL4 cell line was purchased from the German Collection of Microorganisms and Cell Cultures GmbH (DSMZ) and maintained in RPMI 1640 medium supplemented with 10% fetal bovine serum (HyClone), penicillin/streptomycin (100 U/mL), and glutamine ([…]) at 37° C. in a humidified 5% C02 incubator. Exponentially growing MV-4-11 cells were plated at 1250 cells per well and MHH-CALL-4 cells were plated at 7,500 cells per well in Corning 8804BC white 384-well assay plates and incubated overnight at 37° C. in a humidified 5% CO2 incubator. Compounds were transferred to the assay plate from a dose-response plate using a Pintool on a Biomek FXP Laboratory Automation Workstation (Beckman Coulter). Cytotoxicity was determined following 72 hours of incubation using Promega Cell Titer Glo reagent according to the manufacturer's recommendation. Luminescence was measured on an Envision plate reader (Perkin-Elmer).
(§2) Compounds were screened in human cancer cell lines and each cell line was cultured in the complete medium recommended by the vendor and seeded in Corning 8804BC white 384-well assay plates at density of 1250 cells per well for MV-4-11 cells and of 7,500 cells per well for MHH-CALL-4 cells. After overnight incubation at 37° C. in a humidified 5% CO2 incubator, cells were treated with compounds in dose-response format using a Pintool on a Biomek FXP Laboratory Automation Workstation (Beckman Coulter). After 72 h incubation, cell proliferation was assessed using Cell Titer-Gbo (CTG) luminescent cell viability assay (Promega) according to the manufacturer's instruction. Luminescence signal was measured using an Envision plate reader (Perkin-Elmer).

[3] = system: MV-4-11 cells; assay: Cell proliferation assay (Cell Titer-Glo), MV-4-11 cells; assay type: cell-based; conditions: Homo sapiens, MV4-11; MV411 cells, 72 h incubation
Protocol: as §1, §2

[4] = system: neosubstrate degradation; conditions: more potent in cells than lenalidomide; see Ref. 13; cited from earlier work

T1 sequence (P15170 whole entry): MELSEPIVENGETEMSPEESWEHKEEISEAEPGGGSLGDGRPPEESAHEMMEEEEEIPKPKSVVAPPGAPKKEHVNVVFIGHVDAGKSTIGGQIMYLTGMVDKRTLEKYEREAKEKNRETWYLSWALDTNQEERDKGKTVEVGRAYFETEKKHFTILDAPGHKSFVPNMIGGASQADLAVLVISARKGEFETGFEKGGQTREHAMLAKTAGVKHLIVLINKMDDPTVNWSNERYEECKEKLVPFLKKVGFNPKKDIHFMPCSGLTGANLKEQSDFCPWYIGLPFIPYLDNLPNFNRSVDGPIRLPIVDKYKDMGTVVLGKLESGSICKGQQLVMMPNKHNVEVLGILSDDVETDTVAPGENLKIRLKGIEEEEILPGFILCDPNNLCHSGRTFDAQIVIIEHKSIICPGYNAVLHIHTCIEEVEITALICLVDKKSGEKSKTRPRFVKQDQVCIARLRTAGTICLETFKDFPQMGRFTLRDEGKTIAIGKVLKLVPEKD
T1 sequence (Q96SW2 whole entry): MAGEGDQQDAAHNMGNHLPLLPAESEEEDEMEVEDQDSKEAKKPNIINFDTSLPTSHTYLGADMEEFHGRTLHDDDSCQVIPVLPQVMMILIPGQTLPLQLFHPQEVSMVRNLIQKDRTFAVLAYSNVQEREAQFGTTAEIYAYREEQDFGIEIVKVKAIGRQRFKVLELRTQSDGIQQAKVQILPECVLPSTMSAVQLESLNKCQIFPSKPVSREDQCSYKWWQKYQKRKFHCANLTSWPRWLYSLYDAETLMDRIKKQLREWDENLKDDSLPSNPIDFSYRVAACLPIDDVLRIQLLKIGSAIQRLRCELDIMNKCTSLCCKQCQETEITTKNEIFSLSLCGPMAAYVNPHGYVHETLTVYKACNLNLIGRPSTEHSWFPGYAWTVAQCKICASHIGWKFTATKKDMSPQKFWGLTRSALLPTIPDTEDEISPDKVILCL
T1 sequence (Q16531 whole entry partner): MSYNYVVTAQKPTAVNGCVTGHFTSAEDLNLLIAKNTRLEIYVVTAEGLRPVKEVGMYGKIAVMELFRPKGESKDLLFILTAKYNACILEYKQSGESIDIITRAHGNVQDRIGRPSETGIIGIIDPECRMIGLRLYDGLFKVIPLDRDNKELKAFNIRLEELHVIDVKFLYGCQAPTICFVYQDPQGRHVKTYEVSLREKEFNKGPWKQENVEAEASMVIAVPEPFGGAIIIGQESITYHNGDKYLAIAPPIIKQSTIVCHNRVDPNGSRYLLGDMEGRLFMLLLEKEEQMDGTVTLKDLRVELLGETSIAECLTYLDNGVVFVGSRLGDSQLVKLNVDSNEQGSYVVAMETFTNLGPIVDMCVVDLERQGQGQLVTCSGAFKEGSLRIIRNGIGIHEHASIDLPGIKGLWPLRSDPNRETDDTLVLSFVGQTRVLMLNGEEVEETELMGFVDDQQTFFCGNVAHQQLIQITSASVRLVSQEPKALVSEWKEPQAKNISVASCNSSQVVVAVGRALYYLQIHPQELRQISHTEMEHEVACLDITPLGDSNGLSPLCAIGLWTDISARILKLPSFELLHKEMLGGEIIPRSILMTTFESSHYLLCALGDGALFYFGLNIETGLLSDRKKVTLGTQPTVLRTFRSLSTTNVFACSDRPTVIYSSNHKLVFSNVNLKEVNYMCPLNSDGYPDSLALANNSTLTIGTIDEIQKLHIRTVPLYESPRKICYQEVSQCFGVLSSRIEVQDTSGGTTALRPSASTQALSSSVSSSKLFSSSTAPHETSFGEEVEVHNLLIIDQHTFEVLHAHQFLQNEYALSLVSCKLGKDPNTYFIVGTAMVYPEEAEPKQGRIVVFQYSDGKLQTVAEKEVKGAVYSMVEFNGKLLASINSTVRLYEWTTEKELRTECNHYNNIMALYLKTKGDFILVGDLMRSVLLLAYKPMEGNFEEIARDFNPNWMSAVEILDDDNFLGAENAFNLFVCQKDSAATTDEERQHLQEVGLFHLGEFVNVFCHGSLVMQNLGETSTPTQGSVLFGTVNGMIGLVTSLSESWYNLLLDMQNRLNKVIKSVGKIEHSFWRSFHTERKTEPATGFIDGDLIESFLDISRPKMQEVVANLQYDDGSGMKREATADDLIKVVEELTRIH

Row | DC50 [1] | EC50 [3] | SMILES | EC50 [2] | potency in cells relative to lenalidomide [4] | MHHCALL4 Cell Proliferation Assay, result in words ([2]; printed in place of an EC50)
1 | < 1 nM | 5 nM | O=C1CCC(N2Cc3cc(CC(=O)Nc4cccc(Cl)c4)ccc3C2=O)C(=O)N1 (stereo not drawn) [Compound 20] | < 1 nM |  | 
2 | < 1 nM | < 1 nM | COc1ccc(NC(=O)Cc2ccc3c(c2)CN(C2CCC(=O)NC2=O)C3=O)cc1 (stereo not drawn) [Compound 13] | < 1 nM |  | 
3 |  | > 6700 nM | COCCNC(=O)Cc1ccc2c(c1)CN(C1CCC(=O)NC1=O)C2=O (stereo not drawn) [Compound 4] | > 8200 nM |  | 
4 |  | > 6900 nM | CC(C)NC(=O)Cc1ccc2c(c1)CN(C1CCC(=O)NC1=O)C2=O (stereo not drawn) [Compound 6] | > 8500 nM |  | 
5 | < 1 nM | < 1 nM | O=C(Cc1ccc2c(c1)CN(C1CCC(=O)NC1=O)C2=O)NCc1cccc(C(F)(F)F)c1 (stereo not drawn) [Compound 10] | < 1 nM |  | 
6 | < 1 nM | < 1 nM | O=C(Cc1ccc2c(c1)CN(C1CCC(=O)NC1=O)C2=O)NCc1ccccc1 (stereo not drawn) [Compound 1] | < 1 nM |  | 
7 | < 1 nM | < 1 nM | Cc1ccc(CNC(=O)Cc2ccc3c(c2)CN(C2CCC(=O)NC2=O)C3=O)cc1 (stereo not drawn) [Compound 8] | < 1 nM |  | 
8 | < 1 nM |  | O=C(Cc1ccc2c(c1)CN(C1CCC(=O)NC1=O)C2=O)NCc1ccc(Cl)cc1 (stereo not drawn) [Compound 16] | < 1 nM |  | 
9 | < 1 nM | < 1 nM | O=C1CCC(N2Cc3cc(CC(=O)Nc4cccc(OCc5ccccc5)c4)ccc3C2=O)C(=O)N1 (stereo not drawn) [Compound 22] | < 1 nM |  | 
10 |  | > 8700 nM | O=C1CCC(N2Cc3cc(CC(=O)N4CCCCC4)ccc3C2=O)C(=O)N1 (stereo not drawn) [Compound 15] | > 10700 nM |  | 
11 | < 1 nM | 2 nM | O=C1CCC(N2Cc3cc(CC(=O)Nc4ccc(N5CCCCC5)cc4)ccc3C2=O)C(=O)N1 (stereo not drawn) [Compound 23] | < 1 nM |  | 
12 | < 1 nM | 3 nM | O=C(Cc1ccc2c(c1)CN(C1CCC(=O)NC1=O)C2=O)NCc1ccc(F)cc1 (stereo not drawn) [Compound 9] | < 1 nM |  | 
13 | > 2700 nM | > 2200 nM | O=C1CCC(N2Cc3cc(CC(=O)N4CCOCC4)ccc3C2=O)C(=O)N1 (stereo not drawn) [Compound 14] | 21 nM |  | 
14 | > 5970 nM | > 4900 nM | Cc1ccccc1NC(=O)Cc1ccc2c(c1)CN(C1CCC(=O)NC1=O)C2=O (stereo not drawn) [Compound 18] | 2 nM |  | 
15 | > 8100 nM | 744 nM | O=C1CCC(N2Cc3cc(CC(=O)Nc4ccccc4)ccc3C2=O)C(=O)N1 (stereo not drawn) [Compound 17] | 4 nM |  | 
16 | > 3110 nM | > 4500 nM | O=C1CCC(N2Cc3cc(CC(=O)Nc4cccc(F)c4)ccc3C2=O)C(=O)N1 (stereo not drawn) [Compound 21] | < 1 nM |  | 
17 |  | 5 nM | COc1cccc(NC(=O)Cc2ccc3c(c2)CN(C2CCC(=O)NC2=O)C3=O)c1 (stereo not drawn) [Compound 19] | < 1 nM |  | 
18 |  | > 8200 nM | O=C(Cc1ccc2c(c1)CN(C1CCC(=O)NC1=O)C2=O)NCC1CC1 (stereo not drawn) [Compound 7] | > 10100 nM |  | 
19 |  | > 1730 nM | CCN(CC)C(=O)Cc1ccc2c(c1)CN(C1CCC(=O)NC1=O)C2=O (stereo not drawn) [Compound 5] |  |  | 
20 | < 1 nM | 5 nM | O=C(Cc1ccc2c(c1)CN(C1CCC(=O)NC1=O)C2=O)NCc1cccc2ccccc12 (stereo not drawn) [Compound 12] | < 1 nM |  | 
21 | < 1 nM |  | O=C(Cc1ccc2c(c1)CN(C1CCC(=O)NC1=O)C2=O)NCCc1ccccc1 (stereo not drawn) [Compound 11] | < 1 nM |  | 
22 |  |  | O=C1CC[C@H](N2Cc3c(OCc4ccc(CN5CCOCC5)cc4)cccc3C2=O)C(=O)N1 [CC-220] |  | 10 fold | 
23 |  | > 8700 nM | CCN(C(=O)Cc1ccc2c(c1)CN(C1CCC(=O)NC1=O)C2=O)c1ccccc1 (stereo not drawn) [Compound 3] | > 10700 nM |  | 
24 | > 7100 nM | > 5800 nM | O=C1CCC(N2Cc3cc(CC(=O)NC4CCCCC4)ccc3C2=O)C(=O)N1 (stereo not drawn) [Compound 2] |  |  | cytostatic at 10 nM
